In the OPERA property sets (Mansouri et al. 2018):

Settings: not given

**Q.** Which melting point does the source give for `C#C[C@]1(O)CC[C@H]2[C@@H]3CCc4cc(OC5CCCC5)ccc4[C@H]3CC[C@@]21C` here?
**A.** 108 °C

**Q.** Which melting point does the source give for `CC(=O)[C@@]12O[C@](C)(c3ccccc3)O[C@@H]1C[C@H]1[C@@H]3CCC4=CC(=O)CC[C@]4(C)[C@H]3CC[C@@]12C` here?
**A.** 150 °C

**Q.** For `c1ccc2c(c1)c(Cc1cn(CN3CCCCC3)c3ccccc13)cn2CN1CCCCC1`, which melting point is on record?
**A.** 138 °C

**Q.** With `CCCCC=C(C)C` as the molecule, how does the boiling point read?
**A.** 123 °C

**Q.** What about the log10 vapour pressure (mmHg) of the same molecule?
**A.** 1.25

**Q.** Which log10 vapour pressure (mmHg) does the source give for `CCOC(=O)[C@@H](C)Oc1ccc(Oc2nc3ccc(Cl)cc3o2)cc1` here?
**A.** -7.52

**Q.** Which log10 Koc (L/kg) does the source give for `CCNc1nc(Cl)nc(N(CC)CC)n1` here?
**A.** 2.76

**Q.** What about the melting point of the same molecule?
**A.** 101 °C

**Q.** With `CCCCCCCCCCCCCCCCCCCO` as the molecule, how does the melting point read?
**A.** 63.3 °C

**Q.** Which boiling point does the source give for `Oc1ccccc1F` here?
**A.** 152 °C

**Q.** And the log10 Henry constant (atm·m³/mol)?
**A.** -5.49

**Q.** What about the melting point of the same molecule?
**A.** 16.1 °C

**Q.** What about the ready biodegradability of the same molecule?
**A.** not readily biodegradable

**Q.** For `NCCCC1OCC2(CO1)COC(CCCN)OC2` (configuration not stated), which ready biodegradability is on record?
**A.** not readily biodegradable

**Q.** With `Nc1ccc(C(F)(F)F)cc1` as the molecule, how does the melting point read?
**A.** 38 °C

**Q.** For `CC(C)CCCCCCCCCCCCCCC(=O)O`, which ready biodegradability is on record?
**A.** readily biodegradable

**Q.** For `FC(F)Cl`, which boiling point is on record?
**A.** -40.7 °C

**Q.** And the log10 Henry constant (atm·m³/mol)?
**A.** -1.39

**Q.** What about the log10 vapour pressure (mmHg) of the same molecule?
**A.** 3.86

**Q.** And the melting point?
**A.** -157 °C

**Q.** And the ready biodegradability?
**A.** not readily biodegradable

**Q.** Which melting point does the source give for `O=C(O)CCc1cc(I)c(Oc2ccc(O)c(I)c2)c(I)c1` here?
**A.** 200 °C

**Q.** Which results are given for `CC[SiH2]CC`?
**A.** boiling point: 57 °C; melting point: -134 °C

**Q.** Which results are given for `Cc1cccc(N=Cc2ccccc2)c1`?
**A.** boiling point: 315 °C; melting point: 31 °C

**Q.** Which melting point does the source give for `COc1cc(C(=O)c2ccc(Cl)cc2)cc(OC)c1OCCN1CCOCC1` here?
**A.** 91.5 °C

**Q.** With `CC1=C(CC(=O)O)c2cc(F)ccc2/C1=C\c1ccc(S(C)=O)cc1` (configuration not stated) as the molecule, how does the melting point read?
**A.** 183 °C

**Q.** With `CNC(=O)C(C)SCCSP(=O)(OC)OC` (configuration not stated) as the molecule, how does the melting point read?
**A.** 43 °C

**Q.** Which melting point does the source give for `O=[N+]([O-])c1ccc(NS(=O)(=O)c2ccc(Cl)c(C(F)(F)F)c2)c(Cl)c1` here?
**A.** 170 °C

**Q.** Which log10 Koc (L/kg) does the source give for `O=[N+]([O-])c1ccc(Br)c(Cl)c1` here?
**A.** 2.6

**Q.** Which boiling point does the source give for `O=[N+]([O-])c1ccc(-c2ccccc2)cc1` here?
**A.** 340 °C

**Q.** And the melting point?
**A.** 114 °C

**Q.** With `COc1ccc2c(c1)C(=O)N(CCc1ccc(S(=O)(=O)NC(=O)NC3CCCCC3)cc1)C(=O)C2(C)C` as the molecule, how does the melting point read?
**A.** 181 °C

**Q.** What does the source list for `FB(F)c1ccccc1`?
**A.** boiling point: 98 °C; melting point: -36.2 °C

**Q.** Which melting point does the source give for `Cc1cccc(C(=O)O)c1S(=O)(=O)NC(=O)Nc1nc(OCC(F)(F)F)nc(N(C)C)n1` here?
**A.** 162 °C

**Q.** Which melting point does the source give for `CC1=NN(c2ccc([N+](=O)[O-])cc2)C(=O)C1[N+](=O)[O-]` (configuration not stated) here?
**A.** 116 °C

**Q.** For `CCCCCCCCOC(=O)CCCC`, which boiling point is on record?
**A.** 262 °C

**Q.** What about the melting point of the same molecule?
**A.** -42.3 °C

**Q.** With `CC(Cc1ccc(O)c(O)c1)C(C)Cc1ccc(O)c(O)c1` (configuration not stated) as the molecule, how does the melting point read?
**A.** 186 °C

**Q.** Which boiling point does the source give for `C1CCC(CCC2CCCCC2)CC1` here?
**A.** 272 °C

**Q.** What about the melting point of the same molecule?
**A.** 11.5 °C

**Q.** Which melting point does the source give for `CCN(CC)C(=O)[C@@H]1C=C2c3cccc4[nH]cc(c34)C[C@H]2N(C)C1` here?
**A.** 82.5 °C

**Q.** For `Cc1cccc(C(=O)c2ccccc2)c1`, which boiling point is on record?
**A.** 317 °C

**Q.** Which melting point does the source give for `Cc1ccc(O)cc1N` here?
**A.** 158 °C

**Q.** For `Clc1c(Cl)c(Cl)c(C(Cl)Cl)c(Cl)c1Cl`, which boiling point is on record?
**A.** 334 °C

**Q.** What about the melting point of the same molecule?
**A.** 120 °C

**Q.** For `C[C@H]1CC[C@]2(NC1)O[C@H]1C[C@H]3[C@@H]4CC[C@H]5C[C@@H](O)CC[C@]5(C)[C@H]4CC[C@]3(C)[C@H]1[C@@H]2C`, which melting point is on record?
**A.** 210 °C

**Q.** Which results are given for `c1cncnc1`?
**A.** boiling point: 124 °C; melting point: 22 °C; ready biodegradability: not readily biodegradable

**Q.** With `CCC[C@](C)(O)CC` as the molecule, how does the boiling point read?
**A.** 143 °C

**Q.** And the log10 vapour pressure (mmHg)?
**A.** 0.291

**Q.** For `Cc1cncc(C)c1`, which boiling point is on record?
**A.** 172 °C

**Q.** And the log10 Henry constant (atm·m³/mol)?
**A.** -5.16

**Q.** And the log10 vapour pressure (mmHg)?
**A.** 0.239

**Q.** And the melting point?
**A.** -6.6 °C

**Q.** For `O=C(O)c1c(F)cccc1Cl`, which melting point is on record?
**A.** 160 °C

**Q.** What does the source list for `CCCCCCCCF`?
**A.** boiling point: 142 °C; log10 vapour pressure (mmHg): 0.772

**Q.** With `C=CCc1cc(C)ccc1O` as the molecule, how does the boiling point read?
**A.** 237 °C

**Q.** Which melting point does the source give for `O=[N+]([O-])c1ccc(Cl)cc1O` here?
**A.** 41 °C

**Q.** For `CCCCCCCCCCCC(C)O` (configuration not stated), which melting point is on record?
**A.** 23 °C

**Q.** With `CC1CC(O)CC(C)(C)C1` (configuration not stated) as the molecule, how does the boiling point read?
**A.** 196 °C

**Q.** What about the melting point of the same molecule?
**A.** 46.5 °C

**Q.** For `c1ccc(-c2coc(-c3ccccc3)n2)cc1`, which boiling point is on record?
**A.** 339 °C

**Q.** What about the melting point of the same molecule?
**A.** 103 °C

**Q.** Which boiling point does the source give for `O=C(O)c1ccccc1-c1ccccc1` here?
**A.** 344 °C

**Q.** And the melting point?
**A.** 114 °C

**Q.** For `O=c1cc(-c2ccccc2)oc2ccccc12`, which melting point is on record?
**A.** 100 °C

**Q.** Which boiling point does the source give for `CCC(S)CC` here?
**A.** 105 °C

**Q.** And the melting point?
**A.** -111 °C

**Q.** For `CN(C)C(=S)Cl`, which melting point is on record?
**A.** 42.5 °C

**Q.** With `CC(Cl)(Cl)C(=O)Cl` as the molecule, how does the boiling point read?
**A.** 118 °C

**Q.** Which melting point does the source give for `CC(C)OC(=O)C1(S(=O)(=O)c2ccc(Cl)cc2)CCCC1` here?
**A.** 92.5 °C

**Q.** For `Oc1ccc2ncccc2c1`, which boiling point is on record?
**A.** 360 °C

**Q.** What about the melting point of the same molecule?
**A.** 195 °C

**Q.** Which melting point does the source give for `O=[N+]([O-])c1ccc(N=Nc2ccc(O)cc2O)cc1` here?
**A.** 200 °C

**Q.** Which melting point does the source give for `O=C(O)c1ccc(F)cc1` here?
**A.** 185 °C

**Q.** For `c1ccc(CN(CC2=NCCN2)c2ccccc2)cc1`, which melting point is on record?
**A.** 120 °C

**Q.** With `O=S(=O)(O)CS(=O)(=O)O` as the molecule, how does the melting point read?
**A.** 98 °C

**Q.** For `Cc1ccc(C(=O)Cl)cc1`, which boiling point is on record?
**A.** 226 °C

**Q.** And the melting point?
**A.** -3 °C

**Q.** With `CCCOc1ccccc1` as the molecule, how does the boiling point read?
**A.** 190 °C

**Q.** What about the melting point of the same molecule?
**A.** -27 °C

**Q.** Which boiling point does the source give for `Cc1ccncc1` here?
**A.** 145 °C

**Q.** And the log10 Henry constant (atm·m³/mol)?
**A.** -5.22

**Q.** What about the log10 vapour pressure (mmHg) of the same molecule?
**A.** 0.761

**Q.** What about the melting point of the same molecule?
**A.** 3.66 °C

**Q.** Which boiling point does the source give for `C1CO1` here?
**A.** 10.6 °C

**Q.** And the log10 Henry constant (atm·m³/mol)?
**A.** -3.83

**Q.** And the log10 vapour pressure (mmHg)?
**A.** 3.12

**Q.** And the melting point?
**A.** -112 °C

**Q.** And the ready biodegradability?
**A.** readily biodegradable

**Q.** With `COCC#N` as the molecule, how does the boiling point read?
**A.** 119 °C

**Q.** With `O=P(O)(O)CP(=O)(O)O` as the molecule, how does the melting point read?
**A.** 200 °C

Same assay, conditions: fish

**Q.** Which log10 BCF does the source give for `Clc1cc(Cl)c(-c2cc(Cl)c(Cl)cc2Cl)cc1Cl` here?
**A.** 5.43

**Q.** And the log10 biotransformation half-life (days)?
**A.** 2.55

**Q.** With `Nc1ccc2cc(S(=O)(=O)O)cc(O)c2c1` as the molecule, how does the log10 BCF read?
**A.** 0.61

**Q.** For `CC(C)c1ccccc1C(C)C`, which log10 BCF is on record?
**A.** 2.14

**Q.** With `CCCCCCCCC` as the molecule, how does the log10 biotransformation half-life (days) read?
**A.** 0.97

**Q.** With `Clc1cc(-c2c(Cl)ccc(Cl)c2Cl)c(Cl)c(Cl)c1Cl` as the molecule, how does the log10 biotransformation half-life (days) read?
**A.** 2.47

**Q.** With `Clc1ccc(-c2cc(Cl)c(Cl)c(Cl)c2)cc1` as the molecule, how does the log10 biotransformation half-life (days) read?
**A.** 1.69

**Q.** Which log10 BCF does the source give for `N#Cc1ccc(C#N)cc1` here?
**A.** 0.3

**Q.** And the log10 biotransformation half-life (days)?
**A.** -0.81

**Q.** Which log10 biotransformation half-life (days) does the source give for `C1CCC(CCC2CCCCC2)CC1` here?
**A.** 0.13
